From ChEMBL document CHEMBL1121871, “Azaprostaglandin analogues. Synthesis and biological properties of 11-azaprostaglandin derivatives” (1981)
The source made the active and inactive calls. The calls are words filed in the database; no cut-off is given here.

Key:
[1] = Compound was evaluated for the potency ratio in anesthetized rats; assay type: functional
Rattus norvegicus [2] = species on record: Rattus norvegicus; assay: Tested for enhancement against rythemice contractions and tone of rat portal vein at concentrations ranging from 2*10e-6-1*10e-5 g/mL; Active; assay type: functional, organism-based
Cavia porcellus = species on record: Cavia porcellus; assay: Tested for activity of the 250 ng/ml compound to inhibit ADP-induced aggregation in guinea pig platelet rich plasma; Inactive; assay type: functional, organism-based
Rattus norvegicus [3] = species on record: Rattus norvegicus; assay: Compound was tested for its activity to stimulate rat uterus at concentration of 2-10 e-6 g/mL; Showed very little stimulation; assay type: functional, organism-based

CCCCC[C@@H](O)/C=C/[C@H]1NC(=O)C[C@@H]1CCCCCCC(=O)O
Potency Ratio [1]: 0.13
Enhancement (Rattus norvegicus [2]): Active
inhibition (Cavia porcellus): inactive
Activity (Rattus norvegicus [3]): very little stimulation
